# Test results taken from patent US4530714A, “N-aliphatic and N,N-aliphatic phosphoric triamide urease inhibitors and urease inhibited urea based fertilizer compositions” (Allied Corporation, priority 1984, dated 1985).
# How the values were obtained:
# urease [1] = assay: Soil urease inhibition efficacy test, Cazenovia silt loam (New York soil); type: biochemical; conditions: 25° C., three days; for % Inhibition Cazenovian pH 7.3: Cazenovia silt loam pH 7.3, 800 micrograms compound and 42.8 mg urea per 20 g soil; for % Inhibition Cazenovian pH 7.0: Cazenovia silt loam pH 7.0, 200 micrograms compound per 20 g soil
# Description: (§1) Efficacy tests were conducted to evaluate the efficacy of certain representative phosphoric triamide compounds as urease inhibitors. The inhibition tests were run in a New York soil (Cazenovia silt loam, pH 7.0 or 7.3) or in a Wisconsin Soil (Plano silt loam, pH 5.3). […] The bottle was capped with perforated aluminum foil and incubated at 25° C. for three days prior to extraction with 100 mL of a 2M potassium chloride solution containing 0.5 mg of phenylmercuric acetate. The extracts were then analyzed for remaining urea using an autoanalyzer. Percent inhibition was calculated as
# (§2) % Inhibition=[1-(A-B/A-C)]×100%
# (§3) where A is urea recovered from unincubated sample (urea added to soil and immediately extracted); B is urea recovered from inhibited sample; and C is urea recovered from the control (uninhibited sample).
# urease [2] = assay: Percent inhibition versus time in soil (FIG. 1, FIG. 2); type: biochemical; conditions: soil at 25° C. (FIG. 1) and 35° C. (FIG. 2); compared with phenyl phosphorodiamidate
# Description: FIG. 1 is a plot of percent inhibition versus time in soils at 25° C. for N,N-diethylphosphorictriamide, a urease inhibitor useful in the practice of this invention, and for the known urease inhibitor, phenyl phosphorodiamidate, and FIG. 2 is a plot of percent inhibition versus time in soil at 35° C. for the same compounds.
# urease [3] = assay: Soil urease inhibition efficacy test, Plano silt loam (Wisconsin soil); type: biochemical; conditions: Plano silt loam pH 5.3, 25° C., three days
# Description: as §1, §2, §3
# urease [4] = assay: Long term urease inhibition, inhibited Cazenovia soil preincubated or left open 11 days before urea application; type: biochemical; conditions: 200 micrograms compound; for % Inhibition, Preincubated for 11 days Open: allowed to volatilize for 11 days prior to urea application; for % Inhibition, Preincubated for 11 days at 25° C.: inhibited soil incubated 11 days at 25° C. prior to urea application; for % Inhibition, Preincubated for 11 days at 35° C.: inhibited soil incubated 11 days at 35° C. prior to urea application
# Description: Efficacy tests were conducted to evaluate the efficacy of certain representative phosphoric triamide compounds as urease inhibitors. The inhibition tests were run in a New York soil (Cazenovia silt loam, pH 7.0 or 7.3) or in a Wisconsin Soil (Plano silt loam, pH 5.3). Evaluations (run in triplicate) consisted of applying 800 micrograms of the test compound in 5 mL of water and 42.8 mg of urea in 1 mL of water to 20 g of air-dry soil in a glass bottle. The bottle was capped with perforated aluminum foil and incubated at 25° C. for three days prior to extraction with 100 mL of a 2M potassium chloride solution containing 0.5 mg of phenylmercuric acetate. The extracts were then analyzed for remaining urea using an autoanalyzer. Percent inhibition was calculated as
# as §2, §3
# The percent inhibition observed, as determined by the means described in Example XVI except using 200 micrograms of the test compound, are set forth in Table II
# [5] = Solubility in water (as needed for efficacy test); type: physicochemical; conditions: efficacy test application
# [6] = 800 micrograms compound and 42.8 mg urea per 20 g soil
# [7] = 200 micrograms compound per 20 g soil
structure (smiles),measurement,setting,value
"CCN(CC)P(N)(N)=O [Compound 1, N,N-Diethylphosphoric Triamide]",% Inhibition Cazenovian pH 7.3,urease [1],94%
same,duration of the urease inhibiting activity,urease [2],much superior
"CN(C)P(N)(N)=O [Compound 2, N,N-Dimethylphosphoric Triamide]",% Inhibition Cazenovian pH 7.3,urease [1],98%
"C=CCNP(N)(N)=O [Compound 3, N-Allylphosphoric Triamide]",% Inhibition Cazenovian pH 7.3,urease [1],93%
"CN(Cc1ccccc1)P(N)(N)=O [Compound 4, N-Benzyl-N-methylphosphoric Triamide]",% Inhibition Cazenovian pH 7.3,urease [1],96%
"NP(N)(=O)NC1CCCCC1 [Compound 5, N-Cyclohexylphosphoric Triamide]",% Inhibition Cazenovian pH 7.3,urease [1],98%
"NP(N)(=O)N1CCCCC1 [Compound 6, N-(Diaminophosphinyl)piperidine]",% Inhibition Cazenovian pH 7.3,urease [1],94%
"CC(C)NP(N)(N)=O [Compound 7, N-Isopropylphosphoric Triamide]",% Inhibition Cazenovian pH 7.3,urease [1],97%
"CCNP(N)(N)=O [Compound 8, N-Ethylphosphoric Triamide]",% Inhibition Cazenovian pH 7.3,urease [1],99%
same,% Inhibition Wisconsin pH 5.3,urease [3]; [6],47%
same,"% Inhibition, Preincubated for 11 days Open",urease [4],72%
same,"% Inhibition, Preincubated for 11 days at 25° C.",urease [4],74%
same,"% Inhibition, Preincubated for 11 days at 35° C.",urease [4],55%
same,"% Inhibition, No Preincubation",urease [4],95%
"CCCCNP(N)(N)=O [Compound 9, N-(n-Butyl)phosphoric Triamide]",% Inhibition Cazenovian pH 7.3,urease [1],99%
same,% Inhibition Wisconsin pH 5.3,urease [3]; [6],52%
same,"% Inhibition, Preincubated for 11 days Open",urease [4],78%
same,"% Inhibition, Preincubated for 11 days at 25° C.",urease [4],75%
same,"% Inhibition, Preincubated for 11 days at 35° C.",urease [4],68%
same,"% Inhibition, No Preincubation",urease [4],96%
"CCCCNP(N)(N)=S [Compound 10, N-(n-Butyl)thiophosphoric Triamide]",% Inhibition Cazenovian pH 7.3,urease [1],98%
same,% Inhibition Wisconsin pH 5.3,urease [3]; [6],95%
same,"% Inhibition, Preincubated for 11 days Open",urease [4],94%
same,"% Inhibition, Preincubated for 11 days at 25° C.",urease [4],98%
same,"% Inhibition, Preincubated for 11 days at 35° C.",urease [4],89%
same,"% Inhibition, No Preincubation",urease [4],90%
"CCC(C)NP(N)(N)=O (stereo not shown) [Compound 11, N-(sec-Butyl)phosphoric Triamide]",% Inhibition Cazenovian pH 7.3,urease [1],96%
same,% Inhibition Wisconsin pH 5.3,urease [3]; [6],66%
same,"% Inhibition, Preincubated for 11 days Open",urease [4],77%
same,"% Inhibition, Preincubated for 11 days at 25° C.",urease [4],90%
same,"% Inhibition, Preincubated for 11 days at 35° C.",urease [4],85%
same,"% Inhibition, No Preincubation",urease [4],92%
"CCCCCCCCNP(N)(N)=O [Compound 12, N-(n-Octyl)phosphoric Triamide]",% Inhibition Cazenovian pH 7.3,urease [1],98%
same,% Inhibition Wisconsin pH 5.3,urease [3]; [6],51%
same,"% Inhibition, Preincubated for 11 days Open",urease [4],66%
same,"% Inhibition, Preincubated for 11 days at 25° C.",urease [4],39%
same,"% Inhibition, Preincubated for 11 days at 35° C.",urease [4],36%
same,"% Inhibition, No Preincubation",urease [4],95%
"CCCCCCCCCCCCNP(N)(N)=O [Compound 13, N-(n-Dodecyl)phosphoric Triamide]",% Inhibition Cazenovian pH 7.3,urease [1],81%
same,% Inhibition Wisconsin pH 5.3,urease [3]; [6],28%
"CCN(CC)P(N)(N)=S [Compound 14, N,N-Diethylthiophosphoric Triamide]",% Inhibition Cazenovian pH 7.3,urease [1],61%
same,% Inhibition Wisconsin pH 5.3,urease [3]; [6],53%
"CN(C1CCCCC1)P(N)(N)=O [Compound 15, N-Cyclohexyl-N-methylphosphoric Triamide]",% Inhibition Cazenovian pH 7.3,urease [1],92%
same,% Inhibition Wisconsin pH 5.3,urease [3]; [6],48%
same,"% Inhibition, Preincubated for 11 days Open",urease [4],67%
same,"% Inhibition, Preincubated for 11 days at 25° C.",urease [4],78%
same,"% Inhibition, Preincubated for 11 days at 35° C.",urease [4],78%
same,"% Inhibition, No Preincubation",urease [4],80%
"CN(Cc1ccccc1)P(N)(N)=S [Compound 16, N-Benzyl-N-methylthiophosphoric Triamide]",% Inhibition Cazenovian pH 7.0,urease [1],43%
same,% Inhibition Wisconsin pH 5.3,urease [3]; [7],24%
"NP(N)(=S)NC1CCCCC1 [Compound 17, N-Cyclohexylthiophosphoric Triamide]",% Inhibition Cazenovian pH 7.0,urease [1],84%
same,% Inhibition Wisconsin pH 5.3,urease [3]; [7],58%
"CCCCCCNP(N)(N)=S [Compound 18, N-(n-Hexyl)thiophosphoric Triamide]",% Inhibition Cazenovian pH 7.0,urease [1],97%
same,% Inhibition Wisconsin pH 5.3,urease [3]; [7],52%
"NP(N)(=S)N1CCCC1 [Compound 19, N-(Diaminothiophosphinyl)pyrrolidine]",% Inhibition Cazenovian pH 7.0,urease [1],77%
same,% Inhibition Wisconsin pH 5.3,urease [3]; [7],23%
"CCC(C)NP(N)(N)=S (stereo not shown) [Compound 20, N-(sec-Butyl)thiophosphoric Triamide]",% Inhibition Cazenovian pH 7.0,urease [1],65%
same,% Inhibition Wisconsin pH 5.3,urease [3]; [7],51%
"CC(C)N(C(C)C)P(N)(N)=S [Compound 21, N,N-Diisopropylthiophosphoric Triamide]",solubility in water,[5],too insoluble in water to obtain significant data
"NP(N)(=S)N1CCCCC1 [Compound 22, N-(Diaminothiophosphinyl)piperidine]",% Inhibition Cazenovian pH 7.0,urease [1],66%
same,% Inhibition Wisconsin pH 5.3,urease [3]; [7],0%
"CCCCN(CCCC)P(N)(N)=S [Compound 23, N,N-Di-(n-Butyl)thiophosphoric Triamide]",% Inhibition Cazenovian pH 7.0,urease [1],67%
same,% Inhibition Wisconsin pH 5.3,urease [3]; [7],37%
"NP(N)(=O)Oc1ccccc1 [Phenyl Phosphorodiamidate, phenyl phosphorodiamidate, reference compound]","% Inhibition, Preincubated for 11 days Open",urease [4],50%
same,"% Inhibition, Preincubated for 11 days at 25° C.",urease [4],26%
same,"% Inhibition, Preincubated for 11 days at 35° C.",urease [4],16%
same,"% Inhibition, No Preincubation",urease [4],76%
